Source: patent publication US11376264B2, “Use of bromodomain-containing protein 9 antagonists in combination with vitamin D receptor agonists in diabetes treatment” (Salk Institute for Biological Studies, priority 2017, dated 2022)
Entries after “also recorded” stand apart in the source; their conditions may differ.

Columns and labels:
db/db (BKS) mice = experiment: db/db (BKS) mouse T2D model treatment; format: in vivo
Protocol: The following mice strains were from Jackson: VDR KO (B6.129S4-Vdrtm1Mbd/J), B6 db (B6.BKS(D)-Leprdb/J), BKS db (BKS.Cg-Dock7m+/+ Leprdb/J), C57BL6/J. Animals were maintained in a specific pathogen-free animal facility on a 12-hr light-dark cycle at an ambient temperature of 23° C. Water and food were provided ad lib. All animal experiments used age-matched male mice. VDR KO and control littermate mice were maintained on a VDR KO rescue diet containing 21% calcium, 0.67% phosphorus, and 20% lactose supplemented with 4.4 U vitamin D per gram diet.
db/db (B6) mice were grouped based on glucose levels at the age of 5 weeks. Treatments were started from 6 weeks and animals were treated with vehicle (30% 2-Hydroxypropyl-β Cyclodextrin, Sigma, H-107) or drugs 3 times a week. […] For db/db (BKS) mice, treatment started from age of 10 weeks.
For immunohistochemistry, FFPE tissues sections were deparaffinized and antigen retrieval performed using Vector Antigen Unmasking buffer (H3301). VectaStain ABC kit and ImmPACT DAB substrate (Vector Lab) were used to develop signal. Antibodies used: Pro-insulin (R&D, MAB13361, 1:100), insulin (Abcam, ab7842, 1:100), MAFA (Novus, NB400-137, 1:50), NKX6-1 (Cell Signaling, 54551, 1:100), and Glucagon (Abcam, ab82270, 1:100). DAPI-containing mounting media ([…] mounting medium for fluorescence) was used for nuclear staining. Immunostaining was visualized by ZEISS 780 confocal microscopy analysis.
ELISA were performed per manufacturer's instructions: mouse insulin (Millipore, EZRMI-13K), mouse proinsulin (Mercodia, NC9088881).

mouse islets = experiment: Isolated mouse islets cultured with IL1β ± Cal (RNA-Seq); format: cell-based
Protocol: Total RNA was isolated from tissue or cell pellets using the RNA mini kit (Qiagen). Sequencing libraries were prepared from 100-500 ng total RNA using the TruSeq RNA Sample Preparation Kit v2 (Illumina) according to the manufacturer's protocol. Briefly, mRNA was purified, fragmented, and used for first-, then second-strand cDNA synthesis followed by adenylation of 3′ ends. Samples were ligated to unique adapters and subjected to PCR amplification. Libraries were then validated using the 2100 BioAnalyzer (Agilent), normalized, and pooled for sequencing. RNA-Seq libraries prepared from two biological replicates for each experimental condition were sequenced on the Illumina HiSeq 2000 using bar-coded multiplexing and a 100 bp read length.
Image analysis and base calling were performed with Illumina CASAVA-1.8.2. This yielded a median of 29.9M usable reads per sample. Short read sequences were mapped to a UCSC mm9 reference sequence using the RNA-seq aligner STAR (Dobin et al., 2013). Known splice junctions from mm9 were supplied to the aligner and de novo junction discovery was also permitted. Differential gene expression analysis, statistical testing and annotation were performed using Cuffdiff 2 (Trapnell et al., 2013). Transcript expression was calculated as gene-level relative abundance in fragments per kilobase of exon model per million mapped fragments and employed correction for transcript abundance bias (Roberts et al., 2011). RNA-Seq results for genes of interest were also explored visually using the UCSC Genome Browser.
Mouse pancreatic islets were isolated as previously described (Yoshihara et al., 2010, Nat. Commun 1:127) with slight modification. Briefly, 0.5 mg/ml collagenase P (Roche REF 1213873001, diluted in HBSS buffer, GIBCO, 14170-112) was injected through the common bile duct, and the perfused pancreas dissected and incubated at 37° C. for 21 min. Digested exocrine cells and intact islets were separated via centrifugation (900×g for 15 min) over Histopaque-1077 (Sigma, H8889), and intact islets were manually selected. […]

VDR-BRD9 interaction = molecular target: T1, VDR-BRD9 interaction (Homo sapiens, UniProt P11473+Q9H8M2); experiment: Co-immunoprecipitation of VDR and BRD9 in 293T cells; format: cell-based; details: proteomic and Western blot
T1 construct: endogenous BRD9 co-immunoprecipitates with HA-tagged VDR; expressed in transfected cells; host or cells: 293T
T1 sequence (P11473 1-427): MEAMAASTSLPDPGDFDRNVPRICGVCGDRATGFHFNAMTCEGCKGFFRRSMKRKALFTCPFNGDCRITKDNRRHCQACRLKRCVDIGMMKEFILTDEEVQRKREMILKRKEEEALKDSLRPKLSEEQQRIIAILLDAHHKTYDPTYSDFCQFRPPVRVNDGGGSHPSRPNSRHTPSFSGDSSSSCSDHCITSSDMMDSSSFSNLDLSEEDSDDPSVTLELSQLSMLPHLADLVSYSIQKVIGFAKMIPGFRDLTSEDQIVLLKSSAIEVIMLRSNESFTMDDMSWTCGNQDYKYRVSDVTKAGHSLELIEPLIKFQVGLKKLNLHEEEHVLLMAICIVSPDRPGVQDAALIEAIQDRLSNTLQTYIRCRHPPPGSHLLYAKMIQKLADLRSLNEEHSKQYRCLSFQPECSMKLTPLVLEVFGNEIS
T1 sequence (Q9H8M2 1-597): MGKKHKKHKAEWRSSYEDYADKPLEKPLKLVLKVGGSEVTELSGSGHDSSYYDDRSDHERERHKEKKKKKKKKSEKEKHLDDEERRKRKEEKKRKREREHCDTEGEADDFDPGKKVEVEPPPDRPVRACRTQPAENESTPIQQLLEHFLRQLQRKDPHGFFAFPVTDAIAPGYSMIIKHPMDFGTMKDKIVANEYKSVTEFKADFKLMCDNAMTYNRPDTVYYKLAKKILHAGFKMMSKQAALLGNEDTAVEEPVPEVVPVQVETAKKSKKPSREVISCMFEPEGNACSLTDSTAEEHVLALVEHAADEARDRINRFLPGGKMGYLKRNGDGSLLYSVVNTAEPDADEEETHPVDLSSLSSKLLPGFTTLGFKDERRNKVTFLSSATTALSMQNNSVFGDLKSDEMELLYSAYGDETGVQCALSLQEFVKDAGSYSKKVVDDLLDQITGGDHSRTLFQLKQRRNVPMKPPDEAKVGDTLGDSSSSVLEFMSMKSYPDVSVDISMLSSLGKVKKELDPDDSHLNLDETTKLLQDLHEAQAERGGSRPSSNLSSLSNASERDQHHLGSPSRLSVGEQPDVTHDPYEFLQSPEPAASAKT
Protocol: Briefly, cells are lysed using ice-cold lysis buffer (HEPES 20 mM pH8, EDTA 0.2 mM, NaCl 0.3 mM, NP40 0.5%, 15% glycerol) for 15 min, and after centrifuging the supernatant was collected. For HA- or Flag-tagged proteins, immunoprecipitations were performed using HA-magnetic beads (Pierce, P188836), or Flag-magnetic beads (Sigma, M8823) for 1.5 hr at 4° C. For other immunoprecipitations, primary antibodies were incubated with lysates for 2 hr followed by Protein A magnetic beads (Life Technologies, 10001D). After 3 washes with wash buffer (HEPES 10 mM pH8, EDTA 0.2 mM, NaCl 0.3 mM, NP40 0.1%, 15% glycerol), the beads were boiled with NuPage LDS sample buffer and the lysates were stored at −20° C.

Compound	serum insulin levels (db/db (BKS) mice; fasting)	fasting blood glucose / glucose management (db/db (BKS) mice; i.p. 3 times a week)	ER stress markers Calnexin and PERK (db/db (BKS) mice; immunohistochemistry of pancreatic sections)	intracellular insulin level (immunofluorescence) (db/db (BKS) mice; pancreas sections)	IL1β-induced damage / gene expression changes in islets (mouse islets; 48 or 96 hours)	number of genes induced by IL1β and rescued (mouse islets; 96 hours)	number of genes suppressed by IL1β and rescued (mouse islets; 96 hours)	interaction between VDR and BRD9 (VDR-BRD9 interaction)
C=C1/C(=C\C=C2/CCC[C@]3(C)[C@@H]([C@H](C)/C=C/[C@@H](O)C4CC4)CC[C@@H]23)C[C@@H](O)C[C@@H]1O [Cal, calcipotriol]	higher fasting serum insulin levels	only limited improvements	reduced	rescued	protected islets from IL1β-induced damage; also recorded: partially rescued	332 genes	169 genes	–
CCn1cc(-c2cccc(C(F)(F)F)c2)c2sc(C(=N)NC3CCS(=O)(=O)CC3)cc2c1=O [iBRD9]	–	–	–	–	–	–	–	reduced the interaction between VDR and BRD9
